Measurements as given in PubChem BioAssay AID1963869 (Molecular Pharmacology Branch, DTP, NCI, 2024).

Tested on: KRAS patient-derived spheroids with HUVEC/MSC, viability
Assay: Anticancer human tumor 323965-272-R-J2-PDC patient-derived pancreatic carcinoma cell line growth inhibition [KRAS2]
Details: for IC50: curve of first compound; for viability, T/C: stronger effect = lower value
How it was run: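 Combination screen of spheroid viability in tumor-cell co-cultures with endothelial (HUVEC) and mesenchymal stem cell stroma. Each agent was tested in half-log dilutions, topping at clinical Cmax or at 10 microM without a known Cmax.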

[1] = second compound 0.0316 µM, first compound 0.0316 µM
[2] = second compound 0.0316 µM, first compound 0.1 µM
[3] = second compound 0.0316 µM, first compound 0.316 µM
[4] = second compound 0.0316 µM, first compound 1 µM
[5] = second compound 0.0316 µM, first compound 3.16 µM
[6] = second compound 0.0316 µM, first compound 10 µM
[7] = second compound 0.1 µM, first compound 0.0316 µM
[8] = second compound 0.1 µM, first compound 0.1 µM
[9] = second compound 0.1 µM, first compound 0.316 µM
[10] = second compound 0.1 µM, first compound 1 µM
[11] = second compound 0.1 µM, first compound 3.16 µM
[12] = second compound 0.1 µM, first compound 10 µM
[13] = second compound 0.316 µM, first compound 0.0316 µM
[14] = second compound 0.316 µM, first compound 0.1 µM
[15] = second compound 0.316 µM, first compound 0.316 µM
[16] = second compound 0.316 µM, first compound 1 µM
[17] = second compound 0.316 µM, first compound 3.16 µM
[18] = second compound 0.316 µM, first compound 10 µM
[19] = second compound 1 µM, first compound 0.0316 µM
[20] = second compound 1 µM, first compound 0.1 µM
[21] = second compound 1 µM, first compound 0.316 µM
[22] = second compound 1 µM, first compound 1 µM
[23] = second compound 1 µM, first compound 3.16 µM
[24] = second compound 1 µM, first compound 10 µM
[25] = second compound 3.16 µM, first compound 0.0316 µM
[26] = second compound 3.16 µM, first compound 0.1 µM
[27] = second compound 3.16 µM, first compound 0.316 µM
[28] = second compound 3.16 µM, first compound 1 µM
[29] = second compound 3.16 µM, first compound 3.16 µM
[30] = second compound 3.16 µM, first compound 10 µM
[31] = second compound 0.0316 µM, first compound 0.00316 µM
[32] = second compound 0.0316 µM, first compound 0.01 µM
[33] = second compound 0.1 µM, first compound 0.00316 µM
[34] = second compound 0.1 µM, first compound 0.01 µM
[35] = second compound 0.316 µM, first compound 0.00316 µM
[36] = second compound 0.316 µM, first compound 0.01 µM
[37] = second compound 1 µM, first compound 0.00316 µM
[38] = second compound 1 µM, first compound 0.01 µM
[39] = second compound 3.16 µM, first compound 0.00316 µM
[40] = second compound 3.16 µM, first compound 0.01 µM
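Also: spheroids exposed to agents for 7 days.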
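For viability, T/C in this document: 100% = DMSO vehicle control viability.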

SMILES	IC50 (second compound 0.0316 µM)	IC50 (second compound 0.1 µM)	IC50 (second compound 0.316 µM)	IC50 (second compound 1 µM)	IC50 (second compound 3.16 µM)	viability, T/C [1]	viability, T/C [2]	viability, T/C [3]	viability, T/C [4]	viability, T/C [7]	viability, T/C [8]	viability, T/C [9]	viability, T/C [10]	viability, T/C [13]	viability, T/C [14]	viability, T/C [15]	viability, T/C [19]	viability, T/C [20]	viability, T/C [25]	viability, T/C [26]	also measured
CC(C)NCC(C(=O)N1CCN(c2ncnc3c2C(C)CC3O)CC1)c1ccc(Cl)cc1 (stereo not given) + C=CC(=O)N1CCN(c2nc(OCC3CCCN3C)nc3c2CCN(c2cccc4cccc(C)c24)C3)CC1CC#N	489 nM	251 nM	132 nM	118 nM	< 31.6 nM	64.4%	62.4%	54.3%	42.2%	64.5%	54.9%	50.2%	39.2%	58.8%	50.6%	44.1%	57.7%	53.6%	10.2%	6.16%	viability, T/C [5]: 35.7%; viability, T/C [6]: 29.8%; viability, T/C [11]: 30.8%; viability, T/C [12]: 29.1%; viability, T/C [16]: 31.8%; viability, T/C [17]: 26.2%; viability, T/C [18]: 26.3%; viability, T/C [21]: 38.6%; viability, T/C [22]: 33.4%; viability, T/C [23]: 26.4%; viability, T/C [24]: 23.1%; viability, T/C [27]: 5.23%; viability, T/C [28]: 4.82%; viability, T/C [29]: 3.02%; viability, T/C [30]: 1.82%
CCN1CCN(Cc2ccc(Nc3ncc(F)c(-c4cc(F)c5nc(C)n(C(C)C)c5c4)n3)nc2)CC1 + C=CC(=O)N1CCN(c2nc(OCC3CCCN3C)nc3c2CCN(c2cccc4cccc(C)c24)C3)CC1CC#N	8.21 nM	4.98 nM	< 3.16 nM	6.25 nM	< 3.16 nM	39.1%	38.6%	37.2%	45.5%	39.1%	31.2%	31.7%	44%	33.8%	32.8%	31.9%	36.6%	28.8%	3.68%	2.57%	viability, T/C [31]: 60.6%; viability, T/C [32]: 51.1%; viability, T/C [33]: 53.6%; viability, T/C [34]: 46%; viability, T/C [35]: 45%; viability, T/C [36]: 44.8%; viability, T/C [16]: 38.8%; viability, T/C [37]: 58.6%; viability, T/C [38]: 45.9%; viability, T/C [21]: 30.3%; viability, T/C [22]: 36.1%; viability, T/C [39]: 3%; viability, T/C [40]: 4.98%; viability, T/C [27]: 3.48%; viability, T/C [28]: 0.89%
CCNC(=O)CC1N=C(c2ccc(Cl)cc2)c2cc(OC)ccc2-n2c(C)nnc21 (stereo not given) + C=CC(=O)N1CCN(c2nc(OCC3CCCN3C)nc3c2CCN(c2cccc4cccc(C)c24)C3)CC1CC#N	210 nM	101 nM	240 nM	111 nM	< 31.6 nM	75.3%	59.5%	46.3%	30.4%	63.1%	51.1%	35.6%	31.9%	89.5%	91.3%	37.3%	60.4%	50.6%	10.5%	6.25%	viability, T/C [5]: 26.4%; viability, T/C [6]: 27.2%; viability, T/C [11]: 26.3%; viability, T/C [12]: 24.2%; viability, T/C [16]: 29.7%; viability, T/C [17]: 24.7%; viability, T/C [18]: 24.1%; viability, T/C [21]: 38.5%; viability, T/C [22]: 27%; viability, T/C [23]: 22.6%; viability, T/C [24]: 22.5%; viability, T/C [27]: 3.72%; viability, T/C [28]: 0.16%; viability, T/C [29]: 1.28%; viability, T/C [30]: 0.88%
Cn1ncnc1[C@H]1c2n[nH]c(=O)c3cc(F)cc(c23)N[C@@H]1c1ccc(F)cc1 + C=CC(=O)N1CCN(c2nc(OCC3CCCN3C)nc3c2CCN(c2cccc4cccc(C)c24)C3)CC1CC#N	> 100 nM	> 100 nM	> 100 nM	> 100 nM	< 0.316 nM	68.7%	64%	–	–	60.5%	53.8%	–	–	56.1%	57.7%	–	52.8%	57%	12.4%	11.6%	viability, T/C (second compound 0.0316 µM, first compound 0.000316 µM): 75.5%; viability, T/C (second compound 0.0316 µM, first compound 0.001 µM): 83.2%; viability, T/C [31]: 73.7%; viability, T/C [32]: 71.2%; viability, T/C (second compound 0.1 µM, first compound 0.000316 µM): 71.2%; viability, T/C (second compound 0.1 µM, first compound 0.001 µM): 62.3%; viability, T/C [33]: 62%; viability, T/C [34]: 61.5%; viability, T/C (second compound 0.316 µM, first compound 0.000316 µM): 64.2%; viability, T/C (second compound 0.316 µM, first compound 0.001 µM): 63.8%; viability, T/C [35]: 62.7%; viability, T/C [36]: 60.4%; viability, T/C (second compound 1 µM, first compound 0.000316 µM): 58.6%; viability, T/C (second compound 1 µM, first compound 0.001 µM): 65.5%; viability, T/C [37]: 59.6%; viability, T/C [38]: 62.6%; viability, T/C (second compound 3.16 µM, first compound 0.000316 µM): 12.5%; viability, T/C (second compound 3.16 µM, first compound 0.001 µM): 10.9%; viability, T/C [39]: 13.9%; viability, T/C [40]: 11.5%
